Values quoted from earlier work as cited in patent US20250295673A1, “TREATMENT OF BREAST CANCER” (priority 2024, published 2025).
Entries after “also recorded” stand apart in the source; their conditions may differ.

Experiments:
[1] = tested on: FSH (Follicle Stimulating Hormone) and LH (Leutinizing Hormone) release; conditions: nandrolone alone
brain oxytocin = conditions: topically applied vaginally
SHBG = target: T1, SHBG (Homo sapiens, UniProt P04278); conditions: releases testosterone, nandrolone, oxandrolone from SHBG
T1 sequence (P04278 30-402): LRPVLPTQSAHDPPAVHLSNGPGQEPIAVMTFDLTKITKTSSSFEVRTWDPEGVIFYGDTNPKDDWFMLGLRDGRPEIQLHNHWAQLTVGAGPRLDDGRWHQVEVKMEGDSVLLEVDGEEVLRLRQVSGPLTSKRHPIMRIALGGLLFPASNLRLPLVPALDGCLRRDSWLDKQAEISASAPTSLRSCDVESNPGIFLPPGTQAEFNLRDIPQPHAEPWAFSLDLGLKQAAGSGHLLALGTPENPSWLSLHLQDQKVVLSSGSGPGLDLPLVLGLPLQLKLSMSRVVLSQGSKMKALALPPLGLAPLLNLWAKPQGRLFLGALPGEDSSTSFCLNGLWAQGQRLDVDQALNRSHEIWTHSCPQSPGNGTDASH

Compound	effect on FSH and LH release from the pituitary [1]	effect on brain oxytocin (brain oxytocin)	net increase of androgens by release from SHBG (SHBG)
C[C@]12CC[C@H]3[C@@H](CCC4=CC(=O)CC[C@@H]43)[C@@H]1CC[C@@H]2O [nandrolone]	suppresses	–	–
C[C@]12Cc3c[nH]nc3C[C@@H]1CC[C@@H]1[C@@H]2CC[C@@]2(C)[C@H]1CC[C@]2(C)O [stanozolol]	–	increases brain oxytocin; also recorded: raises a user's oxytocin levels	four-fold
